According to article PMC12589998, “Development and validation of a UHPLC-QqQ-MS/MS method for simultaneous determination of fifteen major components from Oroxyli seed extract in rat plasma and its application in the pharmacokinetic study” (Frontiers in Pharmacology, 2025):
“Also recorded” adds a separate entry of the source. Like-named read-outs stand apart in the source and are kept apart here.

Key:
[1] = Pharmacokinetic study in rats after oral administration of OS extract (UHPLC-QqQ-MS/MS of plasma); assay type: in vivo, rat; conditions: for concentration at 0.5 h: SD, 3 g/kg, rat plasma collected 0.5 h after oral administration of the OS extract, read-out: Concentration printed in MRM chromatogram of plasma sample (Figure 2C); for AUC(0-t) / AUC(0-inf) / Cmax / half-life / Tmax: rat plasma, oral 3 g/kg OS extract, n = 6, mean ± SD; for AUC(0-inf): read-out: AUC(0-∞); for Cmax: read-out: Cmax; for half-life: read-out: T1/2 (converted); for Tmax: read-out: Tmax
Procedure: The UHPLC-QqQ-MS/MS system consisted of a 1290 UHPLC and a 6470 mass spectrometer (Agilent Technologies). Chromatographic separation was realized on utilizing an ACQUITY UPLC BEH C18 column (2.1 × 100 mm, 1.7 μm) maintained at 35 °C. The mobile phase consisting of 0.1% formic acid in water (A) and acetonitrile (B) was utilized with the elution program set at 0 min–1 min, 5% B–30% B; 1 min–4 min, 30% B– 50% B; 4 min–8 min, and 50% B–90% B. The injection volume was 5 μL, and the flow rate was 0.3 mL/min. The mass spectrometry parameters in the negative ion mode, gas temperature, flow rate, and nebulizer pressure were 300 °C, 7 L/min, and 35 psi, respectively. The mass spectra properties of the 15 analytes and the IS are illustrated in Table 1.
To 100 μL of the plasma sample, 20 μL of methanol, 20 μL of IS solution (methylparaben, 1 μg/mL), and 5 μL of formic acid were added and vortexed for a duration of 2 min. Subsequently, the mixture underwent extraction with 800 μL of acetonitrile for 3 min. Following 10 min of centrifugation at 12,000 g, the supernatant was collected and evaporated to dryness under N2 to obtain the residue. Finally, the residue was reconstituted in 50% methanol (100 μL) and utilized for analysis.
Before initiating the study, six male SD rats underwent a 12-h fasting period, during which they were granted unrestricted access to water. Then, the rats were administered an oral dose of 3 g/kg of the OS extract, which had been dissolved in 0.5% CMC-Na aqueous solution. Blood samples, approximately 200 μL each, were collected at various time points: before administration and at 0.03, 0.08, 0.17, 0.25, 0.5, 0.75, 1, 2, 4, 6, 8, 10, 12, 24, 36, and 48 h post-administration. Following 10 min of centrifugation at 6,000 g, the resultant samples were stored at −80 °C.
The developed method was effectively applied to study the pharmacokinetics in rats following oral administration of the OS extract. […] This was likely due to their low concentrations in the OS extract. Ultimately, nine components (chrysin, chrysin-7-O-β-D-glucuronide, baicalin, baicalein, oroxin A, oroxin B, oroxylin A, oroxylin A-7-O-β-D-glucuronide, and scutellarein) were successfully fitted with pharmacokinetic parameters. The average plasma concentration–time profiles of these substances are depicted in Figure 3. […] All data were presented as the mean ± standard deviation (Mean ± SD).

[2] = Stability of the analytes in rat plasma samples under storage conditions; assay type: physicochemical; conditions: n = 6
Procedure: The bioanalytical method validation was evaluated for specificity, linearity, sensitivity, precision and accuracy, recovery, matrix effect, and stability to ensure compliance with the U.S. Food and Drug Administration (FDA) guidance on precise quantitative analysis ([Center for Drug Evaluation and Research of the U.S., 2018]). The assessment of specificity was conducted by comparing the chromatograms obtained from blank plasma, blank plasma spiked with the target components, and samples gathered following the oral administration of OS extract. Calibration curves were constructed by plotting the ratio for the peak area of the analyte to IS versus the concentration, with 1/x^2 serving as the weighting factor. The lower limit of quantification (LLOQ) was defined as the concentration at which a signal to noise ratio of […] 10 was achievable. The evaluation of precision and accuracy involved the analysis of six QC samples, both within a single day and over 3 consecutive days. Accuracy was expressed as the relative error (RE), whereas precision was gauged via relative standard deviation (RSD). Extraction recovery was ascertained by juxtaposing the responses of analytes in extracted samples against those in samples that were spiked post-extraction. The matrix effect was scrutinized by determining the ratio of the responses of the analytes in post-extraction spiked samples to those in the mixed standard solution. The stability of the analytes in plasma samples was explored under diverse conditions: encompassing a 12-h period in an autosampler, a 4-h interval at room temperature, three cycles of freezing–thawing, and a 7-day duration at −80 °C.
The retention times of the analyte peaks were consistent with those in the spiked samples. […] The LLOQs for chrysin, chrysin-7-O-β-D-glucuronide, hispidulin, wogonoside, quercetin, quercetin-7-O-β-D-glucoside, baicalin, baicalein, acacetin, oroxin A, oroxin B, oroxylin A, oroxylin A-7-O-β-D-glucuronide, apigenin, and scutellarein were 1.0, 2.0, 1.0, 0.3, 1.0, 0.1, 9.0, 6.0, 0.3, 6.0, 4.0, 1.0, 2.0, 0.5, and 0.3 ng/mL, respectively. In Supplementary Table S2, the RE for accuracy is between −13.77% and 12.55%, and the RSD for precision is below 14.55% (both intra- and inter-day). […] The matrix effect varied from 60.15% to 115.53%, with RSD values below 10.54%. In Supplementary Table S4, the RSD values for stability of the analytes are found to be lower than 13.98%, meaning that these components were stable under the following conditions: encompassing a 12-h period in an autosampler, a 4-h interval at room temperature, three cycles of freezing and thawing, and a 7-day duration at −80 °C.

[3] = spiked concentration 6400 ng/mL
[4] = rat plasma after oral OS extract
[5] = spiked concentration 2000 ng/mL
[6] = spiked concentration 32000 ng/mL

With `O=c1cc(-c2ccccc2)oc2cc(O)c(O)c(O)c12` [Baicalein, baicalein] as the molecule, how does the concentration at 0.5 h ([1]; male) read?
Its concentration at 0.5 h is 400 ng/mL.

And the AUC(0-t) ([1]; male, read-out: AUC(0-t))?
The AUC(0-t) was 4.2 µg·h/mL.

And the AUC(0-inf) ([1]; male)?
Its AUC(0-inf) is 4.6 µg·h/mL.

And the Cmax ([1]; male)?
Its Cmax is 2930 ng/mL.

And the half-life ([1]; male)?
The half-life was 2.99 ± 1.18 h.

What about the Tmax ([1]; male) of the same molecule?
The Tmax was 0.06 ± 0.03 h.

What about the “Measured, -80°C for 7 days” value ([2]; spiked concentration 40 ng/mL) of the same molecule?
The value was 38.12 ± 3.24 ng/mL.

And the “Measured, Autosampler for 12 h” value ([2]; spiked concentration 40 ng/mL)?
Its value is 39.31 ± 4.16 ng/mL.

What about the “Measured, Room temperature for 4 h” value ([2]; spiked concentration 40 ng/mL) of the same molecule?
Its value is 40.41 ± 3.19 ng/mL.

What about the “Measured, Three freeze-thaw cycles” value ([2]; spiked concentration 40 ng/mL) of the same molecule?
The value was 38.12 ± 3.24 ng/mL.

And the “Measured, -80°C for 7 days” value ([2]; spiked concentration 400 ng/mL)?
Its value is 409.67 ± 26.03 ng/mL.

And the “Measured, Autosampler for 12 h” value ([2]; spiked concentration 400 ng/mL)?
The value was 393.06 ± 21.11 ng/mL.

And the “Measured, Room temperature for 4 h” value ([2]; spiked concentration 400 ng/mL)?
Its value is 389.14 ± 35.85 ng/mL.

What about the “Measured, Three freeze-thaw cycles” value ([2]; spiked concentration 400 ng/mL) of the same molecule?
Its value is 409.67 ± 26.03 ng/mL.

What about the “Measured, -80°C for 7 days” value [2, 3] of the same molecule?
The value was 5967.02 ± 503.93 ng/mL.

What about the “Measured, Autosampler for 12 h” value [2, 3] of the same molecule?
Its value is 6241.15 ± 404.47 ng/mL.

What about the “Measured, Room temperature for 4 h” value [2, 3] of the same molecule?
The value was 6247.34 ± 389.56 ng/mL.

And the “Measured, Three freeze-thaw cycles” value [2, 3]?
Its value is 5967.02 ± 503.93 ng/mL.

What does the source list for `COc1c(O)cc2oc(-c3ccc(O)cc3)cc(=O)c2c1O` [Hispidulin, hispidulin]?
concentration at 0.5 h ([1]; male, in vivo): 36 ng/mL; Plasma levels [1, 4]: too weak to obtain comprehensive pharmacokinetic curves; Measured, -80°C for 7 days ([2]; spiked concentration 2 ng/mL): 1.85 ± 0.14 ng/mL; Measured, Autosampler for 12 h ([2]; spiked concentration 2 ng/mL): 1.79 ± 0.08 ng/mL; Measured, Room temperature for 4 h ([2]; spiked concentration 2 ng/mL): 1.87 ± 0.12 ng/mL; Measured, Three freeze-thaw cycles ([2]; spiked concentration 2 ng/mL): 1.77 ± 0.14 ng/mL; Measured, -80°C for 7 days ([2]; spiked concentration 20 ng/mL): 19.90 ± 2.31 ng/mL; Measured, Autosampler for 12 h ([2]; spiked concentration 20 ng/mL): 21.61 ± 2.09 ng/mL; Measured, Room temperature for 4 h ([2]; spiked concentration 20 ng/mL): 21.29 ± 2.88 ng/mL; Measured, Three freeze-thaw cycles ([2]; spiked concentration 20 ng/mL): 20.10 ± 2.62 ng/mL; Measured, -80°C for 7 days ([2]; spiked concentration 320 ng/mL): 280.72 ± 21.00 ng/mL; Measured, Autosampler for 12 h ([2]; spiked concentration 320 ng/mL): 304.61 ± 18.62 ng/mL; Measured, Room temperature for 4 h ([2]; spiked concentration 320 ng/mL): 315.17 ± 13.17 ng/mL; Measured, Three freeze-thaw cycles ([2]; spiked concentration 320 ng/mL): 289.06 ± 17.23 ng/mL

Which concentration at 0.5 h ([1]; male) does the source give for `O=C(O)[C@H]1O[C@@H](Oc2cc3oc(-c4ccccc4)cc(=O)c3c(O)c2O)[C@H](O)[C@@H](O)[C@@H]1O` [Baicalin, baicalin] here?
The concentration at 0.5 h was 10400 ng/mL.

And the AUC(0-t) ([1]; male, read-out: AUC(0-t))?
The AUC(0-t) was 257 µg·h/mL.

What about the AUC(0-inf) ([1]; male) of the same molecule?
The AUC(0-inf) was 264 µg·h/mL.

What about the Cmax ([1]; male) of the same molecule?
The Cmax was 13400 ng/mL.

What about the half-life ([1]; male) of the same molecule?
The half-life was 9.14 ± 1.15 h.

And the Tmax ([1]; male)?
The Tmax was 0.67 ± 0.13 h.

What about the “Shape of plasma concentration-time curve” value [1, 4] of the same molecule?
Its value is “significant bimodal phenomena; also recorded: clear bimodal phenomena”.

What about the “AUC(0-t)” value [1] of the same molecule?
The value was “significantly higher than that of the others”.

What about the “Measured, -80°C for 7 days” value ([2]; spiked concentration 200 ng/mL) of the same molecule?
The value was 196.55 ± 6.22 ng/mL.

What about the “Measured, Autosampler for 12 h” value ([2]; spiked concentration 200 ng/mL) of the same molecule?
Its value is 197.37 ± 12.83 ng/mL.

And the “Measured, Room temperature for 4 h” value ([2]; spiked concentration 200 ng/mL)?
The value was 197.18 ± 11.27 ng/mL.

And the “Measured, Three freeze-thaw cycles” value ([2]; spiked concentration 200 ng/mL)?
The value was 191.59 ± 7.20 ng/mL.

What about the “Measured, -80°C for 7 days” value [2, 5] of the same molecule?
The value was 2100.51 ± 51.69 ng/mL.

What about the “Measured, Autosampler for 12 h” value [2, 5] of the same molecule?
The value was 1919.30 ± 46.13 ng/mL.

What about the “Measured, Room temperature for 4 h” value [2, 5] of the same molecule?
Its value is 2105.21 ± 73.11 ng/mL.

What about the “Measured, Three freeze-thaw cycles” value [2, 5] of the same molecule?
Its value is 1965.30 ± 64.97 ng/mL.

What about the “Measured, -80°C for 7 days” value [2, 6] of the same molecule?
Its value is 34521.83 ± 3366.83 ng/mL.

What about the “Measured, Autosampler for 12 h” value [2, 6] of the same molecule?
Its value is 31375.83 ± 425.60 ng/mL.

What about the “Measured, Room temperature for 4 h” value [2, 6] of the same molecule?
Its value is 30814.68 ± 1603.40 ng/mL.

What about the “Measured, Three freeze-thaw cycles” value [2, 6] of the same molecule?
The value was 32953.20 ± 2649.23 ng/mL.
